Patent publication US20080318884A1, “Methods for Altering Gene Expression and Methods of Treatment Utilizing Same” (THE UAB RESEARCH FOUNDATION, priority 2005, published 2008)

Experiments:
HdhQ150 mRNA = test: QSI treatment of ES cells hemizygous for HdhQ150, Hdh mRNA by quantitative real time PCR; assay type: cell-based, mouse; settings: ES cells hemizygous for HdhQ150, QSI for six hours, high glutamine (1.2 grams/ml), FIG. 2C
Method: (§1) ES cell lines hemizygous for HdhQ150 were treated with an inhibitor of the glutaminyl-tRNA synthetase, QSI (5′-O-[N-(L-glutaminyl)sulfamoyl]adenosine) for six hours in the presence of high levels of glutamine. […] In this case the long CAG repeat is used to represent a rare cluster of codons. This diminishment in disease allele expression was accomplished in the presence of high amounts of glutamine (1.2 grams/ml) showing that reduction of expression can be attained by inhibition of a tRNA synthetase while providing normal amounts of the amino acid which is a substrate for the synthetase reaction. […]
(§2) Since the quantitative real time PCR (QRTPCR) assay (described below) cannot distinguish between different alleles of Hdh it is necessary that the ES cells only express a single allele. […] These engineered ES cells express only the long repeat version of Hdh and lack wild type Hdh mRNA as determined by RT-PCR across the repeat region.
(§3) Finally, a quantitative real time PCR (QRTPCR) assays has been developed for both Hprt and Hdh mRNA. […] During the PCR reaction the polymerase destroys the oligo releasing the […] to allow fluorescence. Fluorescence is measured though every cycle and the point when it increases beyond threshold is logarithmically related to the amount of starting RNA. […]

wild type Hdh mRNA = test: QSI treatment of control ES cells expressing a single wild type Hdh allele, Hdh mRNA by quantitative real time PCR; assay type: cell-based, mouse; settings: QSI for six hours, high glutamine, FIG. 2C
Method: as §1, §2, §3

NC(=O)CC[C@H](N)C(=O)NS(=O)(=O)OC[C@H]1O[C@@H](n2cnc3c(N)ncnc32)[C@H](O)[C@@H]1O [QSI, 5′-O-[N-(L-glutaminyl)sulfamoyl]adenosine]
HdhQ150 mRNA levels (HdhQ150 mRNA): lowered by QSI treatment in a dose dependent manner | wild type Hdh mRNA levels (wild type Hdh mRNA): effect of QSI in lowering Hdh mRNA levels was dependent on the presence of the long CAG repeat
